Measured values: US8062681B2, “Amino acid oligomer dietary supplement” (The Curators Of The University Of Missouri, priority 2006, dated 2011)
Marks after values point to notes of the source that are not given here.

Tested on: rumen fluid

Supplemental Methionine Recovered: 12.25^c %
Compound: CSCCC(N)C(=O)O (centres unmarked) [D, L Met, D,L Methionine]
MOEFF (microbial efficiency) (continuous culture fermenters, .045 g/d supplement with 45 g/d soyhulls): 9.11 grams of bacterial nitrogen per kilogram organic matter fermented
